How the values were obtained:
[1] = tested on: small cell lung cancer cell line H-526 expressing c-Kit kinase; assay: Effect on cell proliferation stimulated by SCF; type: cell-based; conditions: Homo sapiens, NCI-H526; H-526 cells, SCF stimulation, 7th day, Cell Counting Kit-8; read-out: IC50 (concentration required for 50% inhibition of the cell proliferation)
Protocol: After culturing, H-526 cells were washed with PBS three times and were suspended in an RPMI1640 medium containing 0.1% BSA (Sigma Corporation) (hereinafter abbreviated as “BSA-RPMI1640”) at 1.0×10^5 cells/ml. […] After color development, the absorbance of each well was determined using a MTP-32 plate reader (Colona Electric Co., Ltd.) at a measuring wavelength of 450 nm and at a reference wavelength of 660 nm. The absorbance of each well was subtracted by the absorbance of the well without addition of SCF, and then the ratio of the absorbance of the well with addition of the test substance to the ratio of the absorbance of the well without addition of the test substance was determined. This ratio was used to calculate the concentration of the test substance required for 50% inhibition of the cell proliferation (IC50).

c-Kit kinase [2] = molecular target: T1, c-Kit kinase (Homo sapiens, UniProt P10721); assay: Effect on c-Kit kinase phosphorylation in H-526 tumor transplanted to nude mice (immunoblot); type: in vivo, Balb/c nu/nu mice; design: from tissue; host or cells: H-526 tumour xenograft extracted from Balb/c nu/nu mice; conditions: H-526 tumor in nude mice
Protocol: 0.1 ml of a H-526 cell suspension prepared at a concentration of 5.0×10^7 cells/ml, was transplanted to the subcutaneous parts of the right latus of 6-week female Balb/c nu/nu mice (purchased from Charles River Laboratories, Inc.). The animals were then divided into a vehicle control group (solvent-administered group) and a test substance (4-(3-chloro-4-(cyclopropylaminocarbonyl)aminophenoxy)-7-methoxy-6-quinolinecarboxamide) administered group at the point the tumor volume reached 300-1000 mm^3: the test substance was administered to the latter group. The extracted tumor was placed in a cell lysate buffer (50 mM HEPES (pH 7.4), 150 mM NaCl, 10% glycerol, 1% Triton X-100, 1.5 mm MgCl2, 1 mM EDTA, 100 mM NaF, 1 mM PMSF, 10 μg/ml aprotinin, 50 μg/ml leupeptin, 1 μg/ml peptatin A, 1 mM Na3VO4, 25 mM , βglycerophosphate, and phosphatase inhibitor cocktail 11) and homogenized. After centrifugation, the supernatant was protein quantified, and a 3×SDS sample loading buffer was added to prepare a cell lysate sample. Subsequently, the cell lysate was heat-treated at 94° c. for 10 minutes and cryopreserved at −20° c.
The cell lysate sample which was equivalent to 30 μg of protein was electrophoresed on a 4-20% gradient polyacrylamide gel (Daiichi Pure Chemicals Co., Ltd.). After electrophoresis, the sample was transferred to a PVDF membrane (Amersham Pharmacia Biotech Inc.) for 3 hours. In order to assay phosphorylated c-Kit, c-Kit and β-actin, immunoblot was performed using a phospho-c-kit (Tyr719) antibody (Cell Signaling Technologies, Inc.), an anti c-Kit antibody (Cell Signaling Technologies, Inc.) and an anti β-actin antibody (Sigma) as a primary antibody and an anti-rabbit IgG, HRP-linked antibody (Cell Signaling Technologies, Inc.) as a secondary antibody. After the membrane was washed, it was developed with a Super Signal (Pierce Biotechnology, Inc.).

c-Kit kinase [3] = molecular target: T1, c-Kit kinase; assay: Effect on c-Kit kinase phosphorylation by SCF stimulation (immunoblot); type: cell-based; design: in the small cell lung cancer cell line H-526 expressing c-Kit kinase; host or cells: H-526 small cell lung cancer cells; conditions: H-526 cells, 1 hour with test substance, SCF 5 minutes, phospho-c-kit (Tyr719) immunoblot
Protocol: 4-(3-Chloro-4-(cyclopropylaminocarbonyl)aminophenoxy)-7-methoxy-6-quinolinecarboxamide was tested for its effect on the phosphorylation of the c-Kit kinase molecule by SCF stimulation in the small cell lung cancer cell line H-526 expressing c-Kit kinase.
H-526 cells were cultured in a 5% CO2 incubator (37° c.) using an RPMI1640 medium containing 10% FCS. After culturing, H-526 cells were washed with PBS three times and were suspended in a BSA-RPMI1640 medium at 5.0×10^5 cells/ml. Each 1 ml of this cell suspension was inoculated to the well of a 24-well plate and the suspension was cultured in a 5% CO2 incubator (37° c.) for 6 hours. After 6-hours culturing, 1 ml of BSA-RPMI1640 containing a diluted test substance (4-(3-Chloro-4-(cyclopropylaminocarbonyl)aminophenoxy)-7-methoxy-6-quinolinecarboxamide) was added to each well and culturing was carried out in a 5% CO2 incubator (37° c.) for 1 hour. Additional culturing was then carried out in a 5% CO2 incubator (37° c.) for 5 minutes after the addition of 10 μl of SCF (10 μg/ml, R&D Corporation). After 5-minutes culturing, the cells were washed with PBS and 100 μl of SDS sample loading buffer was added to the cells to prepare a cell lysate sample. After the sample was heat-treated at 94° c. for 10 minutes, it was cryopreserved at −20° c. […]

H-526 tumor = assay: Effect on growth of H-526 tumor transplanted to nude mice; type: in vivo, Balb/c nu/nu mice
Protocol: H-526 cells were cultured in a 5% CO2 incubator (37° c.) using an RPMI1640 medium containing 10% FCS. After the culture medium was collected, H-526 cells were washed with PBS twice and were suspended in PBS at 5.0×10^7 cells/ml. This cell suspension (0.1 ml) was transplanted to the subcutaneous parts of the right flank of 6-week female Balb/c nu/nu mice (purchased from Charles River Laboratories, Inc.). After transplantation, administration of a test substance (4-(3-chloro-4-(cyclopropylaminocarbonyl)aminophenoxy)-7-methoxy-6-quinolinecarboxamide) was started at the point the tumor volume reached approximately 150 mm^3, and thus, oral administration was conducted twice daily for a period of 14 days. The test substance was suspended in a 0.5% methylcellulose solution (Wako Pure Chemical Industries Co., Ltd.) so as to give a dose of 0.1 ml/10 g body weight.
The tumor volume was measured with a caliper twice weekly during the administration period. The long and short diameters of the tumor were measured with a caliper and the tumor volume was calculated according to the equation: ½×long diameter×short diameter×short diameter. Here, the experiment was conducted in a vehicle control group of 10 animals (solvent-administered group) as well as in a test substance administered group of 5 animals.

T1 sequence (P10721 26-976): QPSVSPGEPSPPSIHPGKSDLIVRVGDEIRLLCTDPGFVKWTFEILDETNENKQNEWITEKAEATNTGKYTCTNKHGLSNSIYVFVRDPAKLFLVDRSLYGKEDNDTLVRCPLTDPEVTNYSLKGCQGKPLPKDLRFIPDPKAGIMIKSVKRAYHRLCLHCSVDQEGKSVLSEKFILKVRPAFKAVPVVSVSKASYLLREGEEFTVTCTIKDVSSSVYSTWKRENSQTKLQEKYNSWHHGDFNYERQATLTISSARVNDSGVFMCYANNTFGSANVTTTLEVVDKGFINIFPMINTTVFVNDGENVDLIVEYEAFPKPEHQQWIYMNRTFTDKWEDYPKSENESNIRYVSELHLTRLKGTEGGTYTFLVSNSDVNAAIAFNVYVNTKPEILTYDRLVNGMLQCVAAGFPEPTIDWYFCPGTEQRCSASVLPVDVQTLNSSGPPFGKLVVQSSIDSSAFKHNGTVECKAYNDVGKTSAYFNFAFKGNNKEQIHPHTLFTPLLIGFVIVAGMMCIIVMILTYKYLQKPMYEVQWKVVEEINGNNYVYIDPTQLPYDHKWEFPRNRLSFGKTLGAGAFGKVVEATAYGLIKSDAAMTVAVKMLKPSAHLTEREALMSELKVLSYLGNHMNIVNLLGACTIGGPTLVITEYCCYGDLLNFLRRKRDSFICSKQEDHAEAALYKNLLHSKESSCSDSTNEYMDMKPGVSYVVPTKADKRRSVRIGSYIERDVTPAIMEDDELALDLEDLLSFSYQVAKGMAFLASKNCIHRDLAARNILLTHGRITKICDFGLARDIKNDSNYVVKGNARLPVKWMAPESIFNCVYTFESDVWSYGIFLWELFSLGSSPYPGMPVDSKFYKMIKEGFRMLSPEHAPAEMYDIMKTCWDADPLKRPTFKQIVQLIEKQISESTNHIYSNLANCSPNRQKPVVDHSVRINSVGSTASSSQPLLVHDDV

Row | Compound | IC50 [1] | c-Kit and β-actin in tumor tissue (c-Kit kinase [2]; 30 or 100 mg/kg) | phosphorylated c-Kit in tumor tissue (c-Kit kinase [2]; 30 or 100 mg/kg) | c-Kit kinase phosphorylation in the presence of SCF (c-Kit kinase [3]) | growth of the nude mouse transplanted H-526 tumor (tumor volume) (H-526 tumor; oral, twice daily for 14 days) | phosphorylated c-Kit in tumor tissue (c-Kit kinase [2]; 160 mg/kg) | anti-tumor effect (H-526 tumor; H-526 tumor in nude mice, 160 mg/kg)
1 | COc1cc2nccc(Oc3ccc(NC(=O)NC4CC4)c(Cl)c3)c2cc1C(N)=O [4-(3-chloro-4-(cyclopropylaminocarbonyl)aminophenoxy)-7-methoxy-6-quinolinecarboxamide] | 9.46 nM | remained unchanged | completely inhibited phosphorylation | suppressed the c-Kit kinase phosphorylation that would take place in the presence of SCF in a concentration-dependent manner | suppressed the growth of the nude mouse transplanted H-526 tumor in a dose-dependent manner |  | 
2 | Cc1ccc(NC(=O)c2ccc(CN3CCN(C)CC3)cc2)cc1Nc1nccc(-c2cccnc2)n1 [STI571, reference compound] |  |  |  |  |  | partially inhibited phosphorylation | showed little anti-tumor effect
